Measured values: patent US4034111A, “Compositions of and new uses for N-acylanilinobutyric acids” (Byk Gulden Lomberg Chemische Fabrik GmbH, priority 1974, dated 1977)
Read-outs that look alike come from different tables or passages of the source.

How the values were obtained:
[1] = tested on: stomach ulcers; experiment: Anti-ulcerogenity: suppression of acetylsalicylic acid-induced stomach ulcers in rats; assay type: in vivo, rat (Sprague-Dawley, female); settings: 24 h, rat, oral, 30 min before 200 mg/kg acetylsalicylic acid, as sodium salt; for ED100: read-out: Suppression of the formation of stomach ulcers by 100 % (dose); for ED50: read-out: Suppression of the formation of stomach ulcers by 50% (dose)
Experimental: 2. Anti-ulcerogenity was determined according to the method described in German Offenlegungsschrift DT-OS 2,118,200. Female Sprague-Dawley rats weighing about 200 g were kept on empty stomach for 24 hours. Then the compounds to be tested were administered orally in the form of their sodium salts in aqueous solution. After 30 minutes 200 mg/kg acetylsalicyclic acid (in 10 ml/kg of an 1% tylose suspension) were administered to cause stomach ulcers. Control groups received the corresponding amount of water instead of the sodium salt solutions. The ulcus rate was determined microscopically 24 hours after the administration of acetylsalicyclic acid.

[2] = tested on: serum enzyme increase (GOT/GPT) after galactosamine; experiment: Anti-hepatotoxic action: liver damage due to galactosamine, serum enzymes GOT/GPT; assay type: in vivo, rat (Sprague-Dawley, male); settings: rat, oral, as sodium salt, serum 24 hours after 200 mg/kg d-galactosamine hydrochloride i.p.; read-out: Anti-hepatotoxic action: inhibition of serum enzyme increase by 25 % (GOT/GPT), damage due to galactosamine (dose)
Experimental: (§1) 5. The determination of the anti-hepatotoxic and hepatotropic effect, respectively, was carried out by damaging the liver with allyl alcohol or galactosamine.
(b) Damaging, due to galactosamine (galactosamine hepatitis) was carried out in accordance with the method described in Arzneimittelforschung 23 Nr. 1a, 159 (1973): Male Sprague-Dawley rats (220 to 300 g) received 200 mg/kg d-galactosamine hydrochloride (Merck, Darmstadt, article no. 4085) intraperitoneally (injection volume 2 ml/kg) 1 hour after oral administration of the compounds to be tested. 24 hours after the damage due to galactosamine a blood sample was taken from the vena orbitalis with slight ether narcosis. The serum enzymes were determined as described under a.

[3] = tested on: Pancreas secretion; experiment: Pancreas secretion (rat), i.d. administration; assay type: in vivo; settings: intraduodenal, as sodium salt; for ED (50% increase): Rattus norvegicus, read-out: Increase in pancreas secretion by 50 % maximum (dose); for minimal effective dose: read-out: Increase in pancreas secretion: significantly effective of [ ]
Experimental: (§2) 1. Pancreas secretion (rat and cat) was examined along the lines of the method described by C. J. Dockray [J. Physiol., 225, 679, (1972)] for the rat and of that described by R. M. Case et al [J. Physiol., 223, 669, (1972)] for the cat.
(§3) The pancreas secretion and the bile of narcotized rats (female, 250 to 300 g, stomachs not empty; narcosis: 5 ml/kg of a 25 % urethane solution= 1.25 g/kg i.m.) and cats (both sexes, stomachs empty, 3 to 4 kg; narcosis: laughing gas and 60 mg/kg i.p. chloralose and 120 mg/kg i.p. urethane; permanent infusion of 0.4 to 2 E/kg/hour secretine= 1 to 6 ml/animal/hour,pylorus ligature) were separately transferred to the outside. After an initial period of about 2 hours compounds to be examined were administered intravenously to some and intraduodenally to other animals (volume of injection rat/cat 1 ml/kg). The volume and, respectively, the protein content (amylase, lipase, trypsine) of the fraction for 30 minutes and 15 minutes, respectively, were determined by conventional methods (Boehringer Test Combination 15899).

[4] = tested on: serum enzyme increase (GOT/GPT) after allyl alcohol; experiment: Anti-hepatotoxic action: liver damage due to allyl alcohol, serum enzymes GOT/GPT; assay type: in vivo, rat (Sprague-Dawley, female); settings: rat, oral, as sodium salt, serum 18 hours after allyl alcohol; read-out: Anti-hepatotoxic action: inhibition of serum enzyme increase by 25 % (GOT/GPT), damage due to allyl alcohol (dose)
Experimental: as §1
(a) Damaging due to allyl alcohol was carried out in accordance with the method of Renker et al. [Arzneimittelforschung, 22, 1009 (1972)] and of H. Rauen and Schriewer [Arzneimittelforschung, 21, 1194 (1971)]: female Sprague-Dawley-rats (250 to 300 g) received 3 ml/kg of 1.25 % allyl alcohol solution orally […] the compounds to be tested and the solvent (control) had also been administered orally. 18 hours after the damage due to allyl alcohol a blood sample was taken from the tail (0.5 to 0.7 ml) with slight ether narcosis. The serum enzymes GOT (glutamate oxalacetate transaminase) and GPT (glutamate pyruvate transminase) were determined with the help of the Boehringer Test Combination (No. 15955/56)-- micromethod.

[5] = tested on: Pancreas secretion; experiment: Pancreas secretion (cat), pancreas liquid and protein (enzyme); assay type: in vivo; settings: Felis catus, as sodium salt
Experimental: as §2, §3

[6] = tested on: circulation of blood in internal organs (liver, pancreas); experiment: Blood circulation through internal organs (liver, pancreas); assay type: in vivo; settings: Felis catus, iv; cat, i.v. administration, as sodium salt; read-out: Increase in circulation of blood in internal organs (liver, pancreas), effective of
Experimental: 4. The blood circulation through the liver was determined by the arterial blood supply (Art. hepatica) along the lines of the method described by Scholtholt (Habilitationsschrift, faculty of medicine, University of Dusseldorf (1969) "Experimental studies with regard to the blood circulation through the liver").

[7] = tested on: heart force of the heart; experiment: Heart force (left ventricle pressure course) in narcotized cats; assay type: in vivo; settings: Felis catus, iv; cat, i.v. administration, as sodium salt; read-out: Increase in heart force of the heart, effective of
Experimental: 3. The influence of the acylated anilinocarboxylic acids on heart force was determined along the lines of the method of W. Kroneberg et al. [Arzneimittelforschung, 22, 2 (1972)] by determination of the pressure course (isometrically) and pressure increase in the left heart ventricle upon intraveneous administration of the substance to narcotized cats.

Structure (SMILES) | ED100 [1] [mg/kg] | ED25 [2] [mg/kg] | ED (50% increase) [3] [mg/kg] | minimal effective dose [3] [mg/kg] | ED25 [4] [mg/kg] | ED (100% increase) ([5]; intraduodenal, i.d. administration, read-out: Increase in pancreas secretion by 100 % maximum: pancreas liquid (dose)) [mg/kg] | ED (100% increase) ([5]; intraduodenal, i.d. administration, read-out: Increase in pancreas secretion by 100 % maximum: protein (enzyme) (dose)) [mg/kg] | ED (100% increase) ([5]; iv, i.v. administration, read-out: Increase in pancreas secretion by 100 % maximum: protein (enzyme) (dose)) [mg/kg] | ED50 [1] [mg/kg] | minimal effective dose [6] [mg/kg] | minimal effective dose [7] [mg/kg]
COc1ccc(N(CCCC(=O)O)C(=O)c2ccccc2)cc1 [(2), N-benzoyl-γ-(p-anisidino)butyric acid] | 1.5 | ~50 | ~0.2 | 0.05 | 5 to 10 | – | – | – | – | – | –
COc1ccc(N(CCCC(=O)O)C(=O)c2ccc(Cl)cc2)cc1 [(3), N-(p-chlorobenzoyl)-γ-(p-anisidino)butyric acid] | ~10 | ~20 | 1 to 5 | 0.05 | 5 to 10 | ~10 | ~1 | < 10 | 1 to 5 | 1 to 5 | 1
CCOc1ccc(N(CCCC(=O)O)C(=O)c2ccc(Cl)cc2)cc1 [(4), N-(p-chlorobenzoyl)-γ-(p-phenetidino)butyric acid] | ~15 | ~10 | 0.1 to 0.5 | 0.05 | ~10 | – | – | – | – | 1 to 5 | 1
COc1ccc(N(CCCC(=O)O)C(=O)c2ccc(Cl)cc2)cc1OC [(7), N-(p-chlorobenzoyl)-γ-(3,4-dimethoxyanilino)butyric acid] | ~5 | ~20 | ~1 | ~0.1 | 50 | – | – | – | – | 1 | 1 to 5
Cc1cccc(C)c1N(CCCC(=O)O)C(=O)c1ccccc1Cl [(8), N-(o-chlorobenzoyl)-γ-(2,6-dimethylanilino)butyric acid] | ~30 | ~20 | ~1 | 0.01 | – | – | – | – | – | 1 | 1
Cc1cccc(C)c1N(CCCC(=O)O)C(=O)c1ccc(Cl)cc1 [(9), N-(p-chlorobenzoyl)-γ-(2,6-dimethylanilino)butyric acid] | 1 to 5 | 10 to 20 | 0.2 to 0.5 | 0.01 | ~10 | – | – | – | 0.5 to 1 | 1 | 1 to 5
O=C(O)CCCN(C(=O)c1ccc(Cl)cc1)c1ccc(O)cc1 [(11), N-(p-chlorobenzoyl)-γ-(p-hydroxyanilino)butyric acid] | – | – | ~0.7 | 0.5 | ~10 | – | – | – | – | 1 to 5 | ~1
CC(=O)N(CCCC(=O)O)c1cccc(Cl)c1 [(12), N-acetyl-γ-(m-chloroanilino)butyric acid] | – | – | ~1 | 0.1 | – | – | – | – | – | – | 2.5
